Measurements from ChEMBL document CHEMBL1201862, “PubChem BioAssay data set” (2004).
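Exposure lasted 48 hours, with cells grown in 96-well plates and compounds tested at five concentrations. GI50 = concentration required for 50% inhibition of growth.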 Active and inactive are the calls of the source. No stated cut-off is given here; in the data, active = GI50 up to about 1.1 µM and inactive = higher.

Assays:
Experiment in all cases: NCI tumour cell line growth inhibition, 48 h
A549 = system: A549
SNB-78 = system: SNB-78
SR = system: SR
M19-MEL = system: M19-MEL
UO-31 = system: UO-31
HOP-92 = system: HOP-92
NCI-H460 = system: NCI-H460
SNB-19 = system: SNB-19
OVCAR-5 = system: OVCAR-5
TK-10 = system: TK-10
SF-268 = system: SF-268
NCI-H522 = system: NCI-H522
MOLT-4 = system: MOLT-4
KM12 = system: KM12
OVCAR-8 = system: OVCAR-8
HOP-62 = system: HOP-62
SK-MEL-28 = system: SK-MEL-28
RXF 393 = system: RXF 393
IGROV-1 = system: IGROV-1
NCI-H23 = system: NCI-H23
A498 = system: A498
UACC-62 = system: UACC-62
NCI-H226 = system: NCI-H226
UACC-257 = system: UACC-257
M14 = system: M14
SK-OV-3 = system: SK-OV-3
DMS-273 = system: DMS-273
HL-60 = system: HL-60
DMS-114 = system: DMS-114
EKVX = system: EKVX
HCT-116 = system: HCT-116
CCRF-CEM = system: CCRF-CEM
HT-29 = system: HT-29
U-251 = system: U-251
HCC 2998 = system: HCC 2998
COLO 205 = system: COLO 205
SK-MEL-2 = system: SK-MEL-2
786-0 = system: 786-0
SNB-75 = system: SNB-75
XF498 = system: XF498
LXFL 529 = system: LXFL 529
DLD-1 = system: DLD-1
ACHN = system: ACHN
K562 = system: K562
CAKI-1 = system: CAKI-1
RPMI-8226 = system: RPMI-8226
SF-539 = system: SF-539
Malme-3M = system: Malme-3M
SN12C = system: SN12C
OVCAR-4 = system: OVCAR-4
HCT-15 = system: HCT-15

SMILES | GI50 (SNB-78) | GI50 (SR) | GI50 (M19-MEL) | GI50 (UO-31) | GI50 (HOP-92) | GI50 (NCI-H460) | GI50 (SF-268) | GI50 (NCI-H522) | GI50 (MOLT-4) | GI50 (HOP-62) | GI50 (SK-MEL-28) | GI50 (IGROV-1) | GI50 (NCI-H23) | GI50 (A498) | GI50 (UACC-62) | GI50 (NCI-H226) | GI50 (M14) | GI50 (SK-OV-3) | GI50 (DMS-273) | GI50 (HL-60) | other results
COc1ccc(OC)c2c(=O)c3ccccc3[nH]c12 | 49.7 µM (inactive) | 41.1 µM (inactive) | > 100 µM (inactive) | 30.9 µM (inactive) | 37.1 µM (inactive) | 38.9 µM (inactive) | 54.3 µM (inactive) | 82.8 µM (inactive) | 47.9 µM (inactive) | > 100 µM (inactive) | > 100 µM (inactive) | > 100 µM (inactive) | 41.7 µM (inactive) | 69.3 µM (inactive) | 43.6 µM (inactive) | 66.5 µM (inactive) | 74.8 µM (inactive) | > 100 µM (inactive) | 62.5 µM (inactive) | 48.3 µM (inactive) | GI50 (A549): 47 µM (inactive); GI50 (SNB-19): 96.6 µM (inactive); GI50 (OVCAR-5): 70.1 µM (inactive); GI50 (TK-10): > 100 µM (inactive); GI50 (KM12): 57.8 µM (inactive); GI50 (OVCAR-8): 19.3 µM (inactive); GI50 (RXF 393): 41.2 µM (inactive); GI50 (UACC-257): 4.44 µM (inactive); GI50 (DMS-114): 66.8 µM (inactive); GI50 (EKVX): > 100 µM (inactive); GI50 (HCT-116): 44.2 µM (inactive); GI50 (CCRF-CEM): > 100 µM (inactive); GI50 (HT-29): 45.6 µM (inactive); GI50 (U-251): 54.1 µM (inactive)
CCOc1ccc(NC(=O)c2c(N/N=C/c3ccc(OC)cc3)nc(=O)[nH]c2C)cc1 | 57.8 µM (inactive) | > 100 µM (inactive) | 85.5 µM (inactive) | 49.4 µM (inactive) | 46.2 µM (inactive) | 56.4 µM (inactive) | > 100 µM (inactive) | 22.9 µM (inactive) | > 100 µM (inactive) | 38.5 µM (inactive) | > 100 µM (inactive) | 51.5 µM (inactive) | 65.8 µM (inactive) | 18.4 µM (inactive) | > 100 µM (inactive) | 41.6 µM (inactive) | 45.4 µM (inactive) | 33.6 µM (inactive) | 33.7 µM (inactive) | > 100 µM (inactive) | GI50 (HCC 2998): > 100 µM (inactive); GI50 (COLO 205): > 100 µM (inactive); GI50 (SK-MEL-2): 84.5 µM (inactive); GI50 (786-0): 52.2 µM (inactive); GI50 (SNB-75): 37.8 µM (inactive); GI50 (XF498): > 100 µM (inactive); GI50 (LXFL 529): > 100 µM (inactive); GI50 (DLD-1): 63.5 µM (inactive); GI50 (ACHN): 60 µM (inactive); GI50 (K562): > 100 µM (inactive); GI50 (CAKI-1): 44.5 µM (inactive); GI50 (RPMI-8226): > 100 µM (inactive); GI50 (SF-539): 37 µM (inactive); GI50 (Malme-3M): 97.9 µM (inactive); GI50 (SN12C): 76 µM (inactive); GI50 (OVCAR-4): 34.7 µM (inactive); GI50 (HCT-116): 38.6 µM (inactive); GI50 (CCRF-CEM): > 100 µM (inactive); GI50 (HCT-15): > 100 µM
